Results reported in patent publication US6737383B1, “Herbicidal oxadiazolidines” (priority 1999, dated 2004).

Experiments:
purple nutsedge = experiment: Test B pre/postemergence purple nutsedge; assay type: in vivo, Cyperus rotundus
Summary of the method: (§1)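 Response is a visual 0-to-10 score relative to untreated plants, where 0 means no effect and 10 means complete control, taken twelve to sixteen days after application. Treatments went onto soil at planting and onto foliage of 1- to 4-leaf plants, using a surfactant-containing non-phytotoxic solvent.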

velvetleaf = experiment: Test B pre/postemergence velvetleaf; assay type: in vivo, Abutilon theophrasti
Summary of the method: as §1

wheat = experiment: Test B pre/postemergence wheat; assay type: in vivo, Triticum aestivum
Summary of the method: as §1

morningglory = experiment: Test B pre/postemergence morningglory; assay type: in vivo, Ipomoea hederacea
Summary of the method: as §1

giant foxtail = experiment: Test B pre/postemergence giant foxtail; assay type: in vivo, Setaria faberii
Summary of the method: as §1

wild oat = experiment: Test B pre/postemergence wild oat; assay type: in vivo, Avena fatua
Summary of the method: as §1

surinam grass = experiment: Test B pre/postemergence surinam grass; assay type: in vivo, Brachiaria decumbens
Summary of the method: as §1

pigweed = experiment: Test B pre/postemergence pigweed; assay type: in vivo, Amaranthus retroflexus
Summary of the method: as §1

crabgrass = experiment: Test B pre/postemergence crabgrass; assay type: in vivo, Digitaria sanguinalis
Summary of the method: as §1

soybean = experiment: Test B pre/postemergence soybean; assay type: in vivo, Glycine max
Summary of the method: as §1

bamyardgrass = experiment: Test B flood test barnyardgrass; assay type: in vivo, Echinochloa crus-galli
Summary of the method: (§2)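 Flood test on plants grown to the 2-leaf stage; treated plants kept in greenhouse twelve to sixteen days, then visually rated against controls on a 0 (no effect) to 10 (complete control) scale.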

cocklebur = experiment: Test B pre/postemergence cocklebur; assay type: in vivo, Xanthium strumarium
Summary of the method: as §1

rice = experiment: Test B flood test rice; assay type: in vivo, Oryza sativa
Summary of the method: as §2

bedstraw = experiment: Test B pre/postemergence bedstraw; assay type: in vivo, Galium aparine
Summary of the method: as §1

blackgrass = experiment: Test B pre/postemergence blackgrass; assay type: in vivo, Alopecurus myosuroides
Summary of the method: as §1

smallflower flatsedge = experiment: Test B flood test smallflower flatsedge; assay type: in vivo, Cyperus difformis
Summary of the method: as §2

[1] = Preemergence, Rate 62 g/ha, scale of 0 to 10 where 0 is no effect and 10 is complete control
[2] = Preemergence, Rate 250 g/ha, scale of 0 to 10 where 0 is no effect and 10 is complete control
[3] = Rate 62 g/ha, Postemergence, scale 0 to 10, 0 no effect, 10 complete control
[4] = Rate 125 g/ha, Postemergence, scale of 0 to 10 where 0 is no effect and 10 is complete control
[5] = Rate 125 g/ha, Preemergence, scale of 0 to 10 where 0 is no effect and 10 is complete control
[6] = Rate 250 g/ha, Postemergence, scale of 0 to 10 where 0 is no effect and 10 is complete control
[7] = Preemergence, Rate 500 g/ha, scale of 0 to 10 where 0 is no effect and 10 is complete control
[8] = Rate 500 g/ha, Postemergence, scale 0 to 10, 0 no effect, 10 complete control
[9] = Rate 62 g/ha, headed Pre-emergence (flood test species), scale 0 to 10 (0 no effect, 10 complete control)
[10] = Rate 125 g/ha, Pre-emergence, flood test species, scale 0 to 10 where 0 is no effect and 10 is complete control
[11] = Rate 250 g/ha, Pre-emergence, flood-test species, scale 0 to 10, 0 is no effect, 10 is complete control
[12] = Rate 500 g/ha, Pre-emergence, flood test species, scale 0 to 10 (0 no effect, 10 complete control)

SMILES: CCC=CCn1c(=O)on(C(=O)N(c2ccc(F)cc2)C(C)C)c1=O [Compound 286]
- Nutsedge plant response rating (purple nutsedge; [1]): 0
- Nutsedge plant response rating (purple nutsedge; [2]): 0
- Nutsedge plant response rating (purple nutsedge; [3]): 0
- Nutsedge plant response rating (purple nutsedge; [4]): 0
- Nutsedge plant response rating (purple nutsedge; [5]): 0
- Plant response rating, Nutsedge (purple nutsedge; [6]): 0
- Velvetleaf plant response rating (velvetleaf; [1]): 0
- Velvetleaf plant response rating (velvetleaf; [2]): 3
- Plant response rating, Velvetleaf (velvetleaf; [7]): 5
- Velvetleaf plant response rating (velvetleaf; [3]): 0
- Velvetleaf plant response rating (velvetleaf; [4]): 0
- Velvetleaf plant response rating (velvetleaf; [5]): 0
- Plant response rating, Velvetleaf (velvetleaf; [6]): 0
- Wheat plant response rating (wheat; [1]): 0
- Wheat plant response rating (wheat; [2]): 0
- Plant response rating, Wheat (wheat; [7]): 2
- Wheat plant response rating (wheat; [3]): 0
- Wheat plant response rating (wheat; [4]): 3
- Wheat plant response rating (wheat; [5]): 0
- Plant response rating, Wheat (wheat; [6]): 3
- Morningglory plant response rating (morningglory; [1]): 0
- Morningglory plant response rating (morningglory; [2]): 0
- Plant response rating, Morningglory (morningglory; [7]): 0
- Morningglory plant response rating (morningglory; [3]): 1
- Morningglory plant response rating (morningglory; [4]): 3
- Morningglory plant response rating (morningglory; [5]): 0
- Plant response rating, Morningglory (morningglory; [6]): 8
- Giant foxtail plant response rating (giant foxtail; [1]): 8
- Giant foxtail plant response rating (giant foxtail; [2]): 10
- Plant response rating, Giant foxtail (giant foxtail; [7]): 10
- Giant foxtail plant response rating (giant foxtail; [3]): 0
- Giant foxtail plant response rating (giant foxtail; [4]): 0
- Giant foxtail plant response rating (giant foxtail; [5]): 10
- Plant response rating, Giant foxtail (giant foxtail; [6]): 2
- Wild oats plant response rating (wild oat; [1]): 0
- Wild oats plant response rating (wild oat; [2]): 4
- Plant response rating, Wild oats (wild oat; [7]): 6
- Wild oats plant response rating (wild oat; [3]): 0
- Wild oats plant response rating (wild oat; [4]): 0
- Plant response rating, Wild oats (wild oat; [6]): 2
- B. signalgrass plant response rating (surinam grass; [1]): 0
- B. signalgrass plant response rating (surinam grass; [2]): 8
- Plant response rating, B. signalgrass (surinam grass; [7]): 8
- B. signalgrass plant response rating (surinam grass; [3]): 0
- B. signalgrass plant response rating (surinam grass; [4]): 0
- B. signalgrass plant response rating (surinam grass; [5]): 3
- Plant response rating, B. signalgrass (surinam grass; [6]): 0
- B. signalgrass plant response rating (surinam grass; [8]): 2
- Redroot pigweed plant response rating (pigweed; [1]): 0
- Redroot pigweed plant response rating (pigweed; [2]): 2
- Plant response rating, Redroot pigweed (pigweed; [7]): 10
- Redroot pigweed plant response rating (pigweed; [3]): 0
- Redroot pigweed plant response rating (pigweed; [4]): 3
- Redroot pigweed plant response rating (pigweed; [5]): 0
- Plant response rating, Redroot pigweed (pigweed; [6]): 6
- Crabgrass plant response rating (crabgrass; [1]): 0
- Crabgrass plant response rating (crabgrass; [2]): 10
- Plant response rating, Crabgrass (crabgrass; [7]): 10
- Crabgrass plant response rating (crabgrass; [3]): 0
- Crabgrass plant response rating (crabgrass; [4]): 0
- Crabgrass plant response rating (crabgrass; [5]): 2
- Plant response rating, Crabgrass (crabgrass; [6]): 2
- Soybean plant response rating (soybean; [1]): 0
- Soybean plant response rating (soybean; [2]): 0
- Plant response rating, Soybean (soybean; [7]): 0
- Soybean plant response rating (soybean; [3]): 1
- Soybean plant response rating (soybean; [4]): 1
- Soybean plant response rating (soybean; [5]): 0
- Plant response rating, Soybean (soybean; [6]): 2
- Barnyardgrass plant response rating (bamyardgrass; [9]): 0
- Barnyardgrass plant response rating (bamyardgrass; [10]): 0
- Barnyardgrass plant response rating (bamyardgrass; [11]): 0
- Barnyardgrass plant response rating (bamyardgrass; [12]): 4
- Cocklebur plant response rating (cocklebur; [1]): 0
- Cocklebur plant response rating (cocklebur; [2]): 0
- Plant response rating, Cocklebur (cocklebur; [7]): 0
- Cocklebur plant response rating (cocklebur; [3]): 0
- Cocklebur plant response rating (cocklebur; [4]): 0
- Cocklebur plant response rating (cocklebur; [5]): 0
- Plant response rating, Cocklebur (cocklebur; [6]): 0
- Cocklebur plant response rating (cocklebur; [8]): 0
- Rice plant response rating (rice; [9]): 0
- Rice plant response rating (rice; [10]): 0
- Rice plant response rating (rice; [11]): 0
- Rice plant response rating (rice; [12]): 0
- Bedstraw plant response rating (bedstraw; [1]): 0
- Bedstraw plant response rating (bedstraw; [2]): 0
- Plant response rating, Bedstraw (bedstraw; [7]): 0
- Bedstraw plant response rating (bedstraw; [3]): 2
- Bedstraw plant response rating (bedstraw; [4]): 2
- Bedstraw plant response rating (bedstraw; [5]): 0
- Plant response rating, Bedstraw (bedstraw; [6]): 5
- Bedstraw plant response rating (bedstraw; [8]): 6
- Blackgrass plant response rating (blackgrass; [1]): 0
- Blackgrass plant response rating (blackgrass; [2]): 7
- Plant response rating, Blackgrass (blackgrass; [7]): 7
- Blackgrass plant response rating (blackgrass; [3]): 0
- Blackgrass plant response rating (blackgrass; [4]): 2
- Blackgrass plant response rating (blackgrass; [5]): 0
- Plant response rating, Blackgrass (blackgrass; [6]): 5
- Blackgrass plant response rating (blackgrass; [8]): 8
- S. Flatsedge plant response rating (smallflower flatsedge; [9]): 0
- S. Flatsedge plant response rating (smallflower flatsedge; [10]): 0
- S. Flatsedge plant response rating (smallflower flatsedge; [11]): 0
- S. Flatsedge plant response rating (smallflower flatsedge; [12]): 0
